For the experiment, the target named is T1, human TRPV4 (Homo sapiens, UniProt Q9HBA0).
T1 construct: host or cells: tetracycline-inducible Flp-In T-REx 293 cells
The experiment can be described thus: Hypotonicity-induced Ca2+ influx (Fluo-4, FDSS). It is filed as cell-based. Summed up: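 Flp-In T-REx 293 cells with tetracycline-induced human TRPV4, loaded with Fluo-4 for 60 min at 25 °C. Compound added 5 min before hypotonic mannitol/CaCl2 solution. Ca2+ signal recorded for 4.5 min on FDSS.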

[1] abbreviates: Flp-In T-REx 293 cells expressing human TRPV4, examples listed under heading 'Human IC50<50 nM'.
The mark [2] stands for this setting: Flp-In T-REx 293 cells stably expressing human TRPV4, compounds listed by potency bin (<10 nM Tables 96-1/96-2, <3 nM Table 97).

T1 sequence (Q9HBA0 whole entry): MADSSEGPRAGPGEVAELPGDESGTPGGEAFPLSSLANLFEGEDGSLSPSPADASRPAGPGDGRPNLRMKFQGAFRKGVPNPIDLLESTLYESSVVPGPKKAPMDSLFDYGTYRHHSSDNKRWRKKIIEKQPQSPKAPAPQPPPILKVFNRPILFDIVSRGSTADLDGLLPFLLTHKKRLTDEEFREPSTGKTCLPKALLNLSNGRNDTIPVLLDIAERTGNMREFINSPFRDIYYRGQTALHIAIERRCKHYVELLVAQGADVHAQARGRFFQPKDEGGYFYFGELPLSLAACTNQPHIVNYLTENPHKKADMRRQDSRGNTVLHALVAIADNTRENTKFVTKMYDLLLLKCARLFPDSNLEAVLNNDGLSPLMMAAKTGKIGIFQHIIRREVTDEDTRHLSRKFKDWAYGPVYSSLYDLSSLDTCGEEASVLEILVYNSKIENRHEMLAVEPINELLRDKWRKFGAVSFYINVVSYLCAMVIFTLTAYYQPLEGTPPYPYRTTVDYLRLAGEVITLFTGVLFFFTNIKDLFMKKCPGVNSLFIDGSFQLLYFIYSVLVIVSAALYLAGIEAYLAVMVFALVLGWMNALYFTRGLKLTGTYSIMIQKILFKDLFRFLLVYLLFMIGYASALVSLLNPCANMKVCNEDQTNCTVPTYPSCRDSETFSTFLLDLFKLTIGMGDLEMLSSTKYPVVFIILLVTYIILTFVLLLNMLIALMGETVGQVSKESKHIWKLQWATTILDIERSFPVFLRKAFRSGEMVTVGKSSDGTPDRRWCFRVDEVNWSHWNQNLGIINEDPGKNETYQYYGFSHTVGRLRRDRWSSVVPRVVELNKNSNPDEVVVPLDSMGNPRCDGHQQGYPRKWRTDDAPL

Take `CC(C)c1csc(C2(c3nc4c(c(=O)[nH]3)CN(C(=O)C(O)c3cccc(SC(F)(F)F)c3)CCC4)CC2)c1` (centres unmarked) [18-19]: the IC50 is < 50 nM under setting [1] and < 10 nM under setting [2].

`CC(C)c1csc(C2(c3nc4c(c(=O)[nH]3)CN(C(=O)C(O)c3cccc(-c5cccc(OC(F)(F)F)c5)c3)CCC4)CC2)c1` (centres unmarked) [18-20]: the IC50 by setting is: under setting [1], < 50 nM; under setting [2], < 10 nM.

Turning to `CC(C)c1csc(C2(c3nc4c(c(=O)[nH]3)CN(C(=O)C(O)c3cccc(-c5cccc(C(F)(F)F)c5)c3)CCC4)CC2)c1` (centres unmarked) [18-21], the IC50 under setting [1] was < 50 nM and the IC50 under setting [2] was < 10 nM.

Turning to `O=C([C@H](O)c1cccc(Cl)c1)N1CCCc2nc(C3(c4cc(C5CCCCC5)cs4)CC3)[nH]c(=O)c2C1` [18-22], the IC50 is < 50 nM under setting [1] and < 3 nM under setting [2].

Take `O=C([C@H](O)c1cccc(Cl)c1)N1CCCc2nc(C3(c4cc(C5CCCC5)cs4)CC3)[nH]c(=O)c2C1` [18-23]: the IC50 reads like this: under setting [1], < 50 nM; under setting [2], < 3 nM.

As to `CC(C)c1csc(C2(c3nc4c(c(=O)[nH]3)CN(C(=O)[C@H](O)c3cccc(Cl)c3)CCC4)CC2)c1` [18-24], the IC50 was < 50 nM under setting [1] and < 3 nM under setting [2].

Take `O=C([C@H](O)c1cccc(Cl)c1)N1CCCc2nc(C3(c4cc(C5CCOCC5)cs4)CC3)[nH]c(=O)c2C1` [18-25]: the IC50 under setting [1] is < 50 nM and the IC50 under setting [2] is < 10 nM.

For `O=C([C@H](O)c1cccc(-c2cccc(OC(F)(F)F)c2)c1)N1CCCc2nc(C3(c4cc(-c5ccccc5)cs4)CC3)[nH]c(=O)c2C1` [18-26], the IC50 by setting is: under setting [1], < 50 nM; under setting [2], < 10 nM.

For `O=C(Cc1cccc(-c2cccc(Cl)c2)c1)N1CCCc2nc(C3(c4cc(-c5ccccc5)cs4)CC3)[nH]c(=O)c2C1` [18-27], the IC50 was < 50 nM under setting [1] and < 10 nM under setting [2].

Regarding `O=C(Cc1cccc(-c2cccc(C(F)(F)F)c2)c1)N1CCCc2nc(C3(c4cc(-c5ccccc5)cs4)CC3)[nH]c(=O)c2C1` [18-28], the half-inhibitory concentration (IC50) runs as follows: under setting [1], < 50 nM; under setting [2], < 10 nM.

`CC(C)c1csc(C2(c3nc4c(c(=O)[nH]3)CN(C(=O)Cc3cccc(-c5cccc(C(F)(F)F)c5)c3)CCC4)CC2)c1` [18-29]: the IC50 by setting is: under setting [1], < 50 nM; under setting [2], < 10 nM.

Consider `CC(C)c1csc(C2(c3nc4c(c(=O)[nH]3)CN(C(=O)Cc3cccc(-c5cccc(Cl)c5)c3)CCC4)CC2)c1` [18-30], for which the IC50 reads like this: under setting [1], < 50 nM; under setting [2], < 10 nM.

With `O=C([C@H](O)c1cccc(C(F)(F)F)c1)N1CCCc2nc(C3(c4cnc(-c5ccccc5)o4)CC3)[nH]c(=O)c2C1` [18-31], the 50% inhibitory concentration (IC50) under setting [1] was < 50 nM.

`O=C([C@H](O)c1cccc(C(F)(F)F)c1)N1CCCc2nc(C3(c4cncc(C5CCCCC5)c4)CC3)[nH]c(=O)c2C1` [19-1]: the IC50 under setting [1] is < 50 nM and the IC50 under setting [2] is < 3 nM.

As to `CC(C)c1cncc(C2(c3nc4c(c(=O)[nH]3)CN(C(=O)[C@H](O)c3cccc(C(F)(F)F)c3)CCC4)CC2)c1` [19-2], the IC50 under setting [1] was < 50 nM and the IC50 under setting [2] is < 10 nM.

Consider `O=C([C@H](O)c1cccc(C(F)(F)F)c1F)N1CCCc2nc(C3(c4cncc(-c5ccccc5)c4)CC3)[nH]c(=O)c2C1` [19-3], for which the IC50 by setting is: under setting [1], < 50 nM; under setting [2], < 10 nM.

For `CC(C)c1cncc(C2(c3nc4c(c(=O)[nH]3)CN(C(=O)C(O)c3cccc(C(C)(C)C)c3)CCC4)CC2)c1` (centres unmarked) [19-4], the IC50 is, setting by setting: under setting [1], < 50 nM; under setting [2], < 10 nM.

Turning to `CC(C)(C)c1cccc(C(O)C(=O)N2CCCc3nc(C4(c5cncc(-c6ccccc6)c5)CC4)[nH]c(=O)c3C2)c1` (centres unmarked) [19-5], the IC50 under setting [1] was < 50 nM and the half-inhibitory concentration (IC50) under setting [2] is < 10 nM.

`O=C([C@H](O)c1cccc(C(F)(F)F)c1)N1CCCc2nc(C3(c4cncc(Br)c4)CC3)[nH]c(=O)c2C1` [19-6]: under setting [1], the IC50 is < 50 nM.

For the molecule `CC(C)c1cncc(C2(c3nc4c(c(=O)[nH]3)CN(C(=O)C(O)c3cccc(C(F)(F)F)c3F)CCC4)CC2)c1` (centres unmarked) [19-7], the half-maximal inhibitory concentration (IC50) under setting [1] is < 50 nM.

As to `O=C([C@H](O)c1cccc(C(F)(F)F)c1)N1CCCc2nc(C3(c4ccnc(Oc5ccccc5)c4)CC3)[nH]c(=O)c2C1` [19-8], under setting [1], the IC50 was < 50 nM.

In the case of `O=C([C@H](O)c1cccc(Cl)c1)N1CCCc2nc(C3(c4ccnc(Oc5ccccc5)c4)CC3)[nH]c(=O)c2C1` [19-9], the IC50 under setting [1] is < 50 nM.

Take `O=C([C@H](O)c1cccc(Cl)c1)N1CCCc2nc(C3(c4cncc(-c5cnsc5)c4)CC3)[nH]c(=O)c2C1` [19-10]: the IC50 under setting [1] is < 50 nM.

`O=C(C(O)c1cccc(Cl)c1F)N1CCCc2nc(C3(c4cncc(-c5ccccc5)c4)CC3)[nH]c(=O)c2C1` (centres unmarked) [19-11]: the IC50 runs as follows: under setting [1], < 50 nM; under setting [2], < 3 nM.

In the case of `CC(C)c1cncc(C2(c3nc4c(c(=O)[nH]3)CN(C(=O)C(O)c3cccc(Cl)c3F)CCC4)CC2)c1` (centres unmarked) [19-12], the IC50 was < 50 nM under setting [1] and < 10 nM under setting [2].

In the case of `O=C([C@H](O)c1cccc(C(F)(F)F)c1)N1CCCc2nc(C3(c4cncc(C(F)(F)F)c4)CC3)[nH]c(=O)c2C1` [19-13], the IC50 runs as follows: under setting [1], < 50 nM; under setting [2], < 10 nM.

Take `O=C(Cc1cccc(-c2cccc(C(F)(F)F)c2)c1)N1CCCc2nc(C3(c4cncc(-c5ccccc5)c4)CC3)[nH]c(=O)c2C1` [19-14]: the half-maximal inhibitory concentration (IC50) is, setting by setting: under setting [1], < 50 nM; under setting [2], < 10 nM.

In the case of `O=C(Cc1cccc(-c2cccc(Cl)c2)c1)N1CCCc2nc(C3(c4cncc(-c5ccccc5)c4)CC3)[nH]c(=O)c2C1` [19-15], the IC50 is < 50 nM under setting [1] and < 10 nM under setting [2].

For `O=C(N1CCCc2nc(C3(c4ccccc4)CC3)[nH]c(=O)c2C1)C(F)(F)c1cccc(C(F)(F)F)c1` [20-1], the IC50 is < 50 nM under setting [1] and < 3 nM under setting [2].

Take `O=C(N1CCCc2nc(C3(c4cccc(Cl)c4)CC3)[nH]c(=O)c2C1)C(F)(F)c1cccc(Cl)c1` [20-2]: the IC50 is, setting by setting: under setting [1], < 50 nM; under setting [2], < 3 nM.

With `O=C(N1CCCc2nc(C3(c4cccc(F)c4)CC3)[nH]c(=O)c2C1)C(F)(F)c1cccc(C(F)(F)F)c1` [20-3], the IC50 is, setting by setting: under setting [1], < 50 nM; under setting [2], < 3 nM.

On to `O=C(N1CCCc2nc(C3(c4cccc(Cl)c4)CC3)[nH]c(=O)c2C1)C(F)(F)c1cccc(C(F)(F)F)c1` [20-4], for which the half-inhibitory concentration (IC50) was < 50 nM under setting [1] and < 3 nM under setting [2].

With `O=C(N1CCCc2nc(C3(c4cccc(F)c4)CC3)[nH]c(=O)c2C1)C(F)(F)c1cccc(Cl)c1` [20-5], the concentration for half-maximal inhibition (IC50) is, setting by setting: under setting [1], < 50 nM; under setting [2], < 3 nM.

For `CC(C)c1cccc(C2(c3nc4c(c(=O)[nH]3)CN(C(=O)C(F)(F)c3cccc(C(F)(F)F)c3)CCC4)CC2)c1` [20-6], the IC50 reads like this: under setting [1], < 50 nM; under setting [2], < 10 nM.

For `O=C(N1CCCc2nc(C3(c4ccccc4)CC3)[nH]c(=O)c2C1)C(F)(F)c1cccc(Cl)c1` [20-7], the IC50 under setting [1] is < 50 nM and the IC50 under setting [2] is < 10 nM.

On to `CC(C)c1cccc(C2(c3nc4c(c(=O)[nH]3)CN(C(=O)C(F)(F)c3cccc(Cl)c3)CCC4)CC2)c1` [20-8], for which the half-maximal inhibitory concentration (IC50) is, setting by setting: under setting [1], < 50 nM; under setting [2], < 10 nM.

For the molecule `O=C(N1CCc2nc(C3(c4ccccc4)CC3)[nH]c(=O)c2C1)C(F)(F)c1cccc(C(F)(F)F)c1` [20-9], the IC50 under setting [1] is < 50 nM.

Take `O=C(N1CCc2nc(C3(c4cccc(Cl)c4)CC3)[nH]c(=O)c2C1)C(F)(F)c1cccc(C(F)(F)F)c1` [20-10]: the IC50 under setting [1] was < 50 nM.

Consider `CC(C)c1cccc(C2(c3nc4c(c(=O)[nH]3)CN(C(=O)C(F)(F)c3cccc(C(F)(F)F)c3)CC4)CC2)c1` [20-13], for which the half-maximal inhibitory concentration (IC50) under setting [1] is < 50 nM.

For the molecule `CC(C)c1cccc(C2(c3nc4c(c(=O)[nH]3)CN(C(=O)C(F)(F)c3cccc(Cl)c3)CC4)CC2)c1` [20-14], the half-maximal inhibitory concentration (IC50) under setting [1] is < 50 nM.

As to `O=C(N1CCCc2nc(C3(c4cccc(-c5csc6ccccc56)c4)CC3)[nH]c(=O)c2C1)C(F)(F)c1cccc(C(F)(F)F)c1` [20-15], the IC50 under setting [1] is < 50 nM and the IC50 under setting [2] is < 10 nM.

As for `O=C(N1CCCc2nc(C3(c4cccs4)CC3)[nH]c(=O)c2C1)C(F)(F)c1cccc(C(F)(F)F)c1` [21-1], the IC50 is < 50 nM under setting [1] and < 3 nM under setting [2].

For the molecule `O=C(N1CCCc2nc(C3(c4cccs4)CC3)[nH]c(=O)c2C1)C(F)(F)c1cccc(Cl)c1` [21-2], the IC50 by setting is: under setting [1], < 50 nM; under setting [2], < 10 nM.

For `CC(C)c1csc(C2(c3nc4c(c(=O)[nH]3)CN(C(=O)C(F)(F)c3cccc(Cl)c3)CCC4)CC2)c1` [21-3], the IC50 is, setting by setting: under setting [1], < 50 nM; under setting [2], < 3 nM.

As for `CC(C)c1csc(C2(c3nc4c(c(=O)[nH]3)CN(C(=O)C(F)(F)c3cccc(Cl)c3)CC4)CC2)c1` [21-4], the IC50 is, setting by setting: under setting [1], < 50 nM; under setting [2], < 10 nM.

Turning to `CC(C)c1csc(C2(c3nc4c(c(=O)[nH]3)CN(C(=O)C(F)(F)c3cccc(C(F)(F)F)c3)CC4)CC2)c1` [21-5], the IC50 was < 50 nM under setting [1] and < 10 nM under setting [2].

In the case of `CC(C)c1csc(C2(c3nc4c(c(=O)[nH]3)CN(C(=O)C(F)(F)c3cccc(Cl)c3F)CCC4)CC2)c1` [21-6], the IC50 runs as follows: under setting [1], < 50 nM; under setting [2], < 10 nM.

As for `CC(C)c1cncc(C2(c3nc4c(c(=O)[nH]3)CN(C(=O)C(F)(F)c3cccc(C(F)(F)F)c3)CCC4)CC2)c1` [22-1], the IC50 was < 50 nM under setting [1] and < 3 nM under setting [2].

For `O=C(N1CCCc2nc(C3(c4cncc(-c5ccccc5)c4)CC3)[nH]c(=O)c2C1)C(F)(F)c1cccc(Cl)c1` [22-2], the IC50 is, setting by setting: under setting [1], < 50 nM; under setting [2], < 3 nM.

In the case of `CC(C)c1cncc(C2(c3nc4c(c(=O)[nH]3)CN(C(=O)C(F)(F)c3cccc(Cl)c3)CCC4)CC2)c1` [22-3], the IC50 was < 50 nM under setting [1] and < 3 nM under setting [2].

On to `O=C(N1CCCc2nc(C3(c4cncc(-c5ccccc5)c4)CC3)[nH]c(=O)c2C1)C(F)(F)c1cccc(C(F)(F)F)c1` [22-4], for which the IC50 was < 50 nM under setting [1] and < 3 nM under setting [2].

As usually defined, the IC50 is the concentration at which inhibition is half-maximal.
